Measurements from ChEMBL document CHEMBL1148644, “Human PEPT1 pharmacophore distinguishes between dipeptide transport and binding” (J Med Chem, 2006).
Where a SMILES comes first, the peptide text is derived from it. [ ]: non-standard residue; d: D form. Tic = O=C(O)[C@@H]1Cc2ccccc2CN1; Sar = CNCC(=O)O

What was measured:
[1] = biological target: T1, Solute carrier family 15 member 1 (Homo sapiens, UniProt P46059); experiment: Binding affinity to human PEPT1 assessed as inhibition of [14C]Gly-Sar uptake in MDCK cells; assay type: functional, cell-based
T1 sequence (P46059 whole entry): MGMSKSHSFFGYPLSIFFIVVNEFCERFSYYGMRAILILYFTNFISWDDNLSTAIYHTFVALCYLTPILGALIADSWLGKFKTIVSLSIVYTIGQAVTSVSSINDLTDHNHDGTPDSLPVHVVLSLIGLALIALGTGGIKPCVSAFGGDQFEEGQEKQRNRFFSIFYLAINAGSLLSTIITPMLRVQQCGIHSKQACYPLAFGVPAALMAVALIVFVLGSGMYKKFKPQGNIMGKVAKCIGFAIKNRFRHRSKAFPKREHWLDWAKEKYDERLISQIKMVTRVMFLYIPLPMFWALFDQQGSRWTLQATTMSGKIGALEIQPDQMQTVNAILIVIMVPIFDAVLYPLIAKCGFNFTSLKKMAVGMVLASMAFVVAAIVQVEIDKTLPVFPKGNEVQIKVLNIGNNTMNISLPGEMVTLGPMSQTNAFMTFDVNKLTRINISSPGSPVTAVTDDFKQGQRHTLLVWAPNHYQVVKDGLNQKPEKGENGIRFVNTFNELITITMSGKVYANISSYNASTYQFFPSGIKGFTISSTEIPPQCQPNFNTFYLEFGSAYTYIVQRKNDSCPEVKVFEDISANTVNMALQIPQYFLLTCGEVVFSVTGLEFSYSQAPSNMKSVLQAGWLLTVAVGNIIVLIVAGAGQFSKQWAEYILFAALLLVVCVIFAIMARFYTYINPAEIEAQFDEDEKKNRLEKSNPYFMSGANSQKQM

[2] = biological target: T1, Solute carrier family 15 member 1; experiment: Activation of human PEPT1 expressed in MDCK cells; assay type: functional, cell-based

Structure (SMILES)	IC50 ([1]; mdck)	EC50 [2] [µM]	IC50 ([1]; read-out: IC50) [µM]
NCCC[C@H](NC(=O)[C@@H](N)CCCN)C(=O)O	Not Active		
NCCCC[C@H](N)C(=O)N1CCC[C@@H]1C(=O)O		190	390
N[C@@H](Cc1c[nH]cn1)C(=O)N[C@@H](Cc1c[nH]c2ccccc12)C(=O)O		190	950
C[C@H](NC(=O)[C@@H](N)Cc1ccccc1)C(N)=O		850	2990
C[C@H](NC(=O)[C@@H](N)Cc1ccc(O)cc1)C(=O)O		100	110
NC(=O)CNC(=O)[C@@H](N)Cc1ccc(O)cc1	Not Active		
N[C@@H](Cc1c[nH]cn1)C(=O)N[C@@H](Cc1c[nH]cn1)C(=O)O		370	400
NCCCC[C@H](NC(=O)[C@@H](N)CCCCN)C(=O)O			10900
NCC(=O)NCC(=O)NCC(=O)O		580	1070
CC(C)C[C@H](NC(=O)CN)C(=O)O		170	70
C[C@H](N)C(=O)N[C@@H](Cc1ccccc1)C(=O)O		80	70
N[C@@H](Cc1ccc(O)cc1)C(=O)NCC(=O)O		240	330
CC(=O)N[C@@H](Cc1ccccc1)C(=O)N[C@@H](Cc1ccc(O)cc1)C(N)=O (Ac-Phe-Tyr-NH2)	Not Active		
C[C@H](N)C(=O)N[C@@H](C)C(=O)O (H-Ala-Ala-OH)		80	250
C[C@H](N)C(=O)N[C@@H](CC(=O)O)C(=O)O (H-Ala-Asp-OH)		230	450
C[C@H](N)C(=O)N[C@@H](CCCCN)C(=O)O (H-Ala-Lys-OH)		220	280
C[C@H](N)C(=O)N[C@@H](Cc1c[nH]c2ccccc12)C(=O)O (H-Ala-Trp-OH)		80	260
C[C@H](N)C(=O)N[C@@H](Cc1ccc(O)cc1)C(=O)O (H-Ala-Tyr-OH)		60	170
NC(N)=NCCC[C@H](NC(=O)[C@@H](N)CCCN=C(N)N)C(=O)O (H-Arg-Arg-OH)			7310
NC(N)=NCCC[C@H](N)C(=O)NCC(=O)O (H-Arg-Gly-OH)		270	390
NCCCC[C@H](NC(=O)[C@@H](N)CCCN=C(N)N)C(=O)O (H-Arg-Lys-OH)			8110
N[C@@H](CC(=O)O)C(=O)N[C@@H](CC(=O)O)C(=O)O (H-Asp-Asp-OH)		990	630
N[C@@H](CC(=O)O)C(=O)NCC(=O)O (H-Asp-Gly-OH)		440	810
N[C@@H](CC(=O)O)C(=O)N[C@@H](Cc1c[nH]c2ccccc12)C(=O)O (H-Asp-Trp-OH)		470	1310
CC(C)[C@H](NC(=O)[C@@H](N)CC(=O)O)C(=O)O (H-Asp-Val-OH)		690	310

Structure (SMILES)	IC50 ([1]; mdck)	EC50 [2] [µM]	IC50 ([1]; read-out: IC50) [µM]
NCC(=O)NCC(=O)NCC(=O)NCC(=O)O (H-GGGG-OH)	Not Active		
NC(=O)CC[C@H](NC(=O)[C@@H](N)CCC(N)=O)C(=O)O (H-Gln-Gln-OH)		100	150
NC(=O)CC[C@H](N)C(=O)N[C@@H](CCC(=O)O)C(=O)O (H-Gln-Glu-OH)		420	510
N[C@@H](CCC(=O)O)C(=O)N[C@@H](CCC(=O)O)C(=O)O (H-Glu-Glu-OH)		1000	620
N[C@@H](CCC(=O)O)C(=O)NCC(=O)O (H-Glu-Gly-OH)		510	390
NCCCC[C@H](NC(=O)[C@@H](N)CCC(=O)O)C(=O)O (H-Glu-Lys-OH)		310	720
NCC(=O)N[C@@H](CC(=O)O)C(=O)O (H-Gly-Asp-OH)		550	380
NCC(=O)N[C@@H](CCC(=O)O)C(=O)O (H-Gly-Glu-OH)		1100	650
NCC(=O)NCC(=O)NCC(N)=O (H-Gly-Gly-Gly-NH2)	Not Active		
NCC(=O)NCC(=O)O (H-Gly-Gly-OH)		480	820
NCC(=O)N[C@@H](Cc1c[nH]cn1)C(=O)O (H-Gly-His-OH)		400	810
CC(C)C[C@H](NC(=O)CN)C(=O)NCC(=O)O (H-Gly-Leu-Gly-OH)		210	240
CC(C)C[C@H](NC(=O)CN)C(=O)N[C@@H](Cc1ccccc1)C(=O)O (H-Gly-Leu-Phe-OH)		280	980
NCCCC[C@H](NC(=O)CN)C(=O)O (H-Gly-Lys-OH)		750	1250
NCC(=O)N[C@@H](Cc1ccccc1)C(N)=O (H-Gly-Phe-NH2)	Not Active		
NCC(=O)N[C@@H](Cc1ccccc1)C(=O)O (H-Gly-Phe-OH)		130	170
NCC(=O)N[C@@H](Cc1c[nH]c2ccccc12)C(=O)O (H-Gly-Trp-OH)		330	520
NCC(=O)N[C@@H](Cc1ccc(O)cc1)C(N)=O (H-Gly-Tyr-NH2)	Not Active		
NCC(=O)N[C@@H](Cc1ccc(O)cc1)C(=O)O (H-Gly-Tyr-OH)		140	120
N[C@@H](Cc1c[nH]cn1)C(=O)NCC(=O)O (H-His-Gly-OH)		280	340
NCCCC[C@H](N)C(=O)N[C@@H](CCCN=C(N)N)C(=O)O (H-Lys-Arg-OH)			7200
NCCCC[C@H](N)C(=O)N[C@@H](CCC(=O)O)C(=O)O (H-Lys-Glu-OH)		530	820
NCCCC[C@H](N)C(=O)NCC(=O)O (H-Lys-Gly-OH)		320	380
NCCCC[C@H](N)C(=O)N[C@@H](Cc1c[nH]c2ccccc12)C(=O)O (H-Lys-Trp-OH)			660
CC(C)[C@H](NC(=O)[C@@H](N)CCCCN)C(=O)O (H-Lys-Val-OH)		140	250

Structure (SMILES)	IC50 ([1]; mdck)	EC50 [2] [µM]	IC50 ([1]; read-out: IC50) [µM]
N[C@@H](Cc1ccccc1)C(=O)NCC(=O)O (H-Phe-Gly-OH)		110	170
NC(=O)[C@H](Cc1ccc(O)cc1)NC(=O)[C@@H](N)Cc1ccccc1 (H-Phe-Tyr-NH2)		30	20
O=C(O)C[C@H](NC(=O)[C@@H]1CCCN1)C(=O)O (H-Pro-Asp-OH)		> 5000	9160
O=C(O)CC[C@H](NC(=O)[C@@H]1CCCN1)C(=O)O (H-Pro-Glu-OH)		> 5000	12300
O=C(O)CNC(=O)[C@@H]1CCCN1 (H-Pro-Gly-OH)			> 16000
CC(C)C[C@H](NC(=O)[C@@H]1CCCN1)C(=O)O (H-Pro-Leu-OH)		250	620
NCCCC[C@H](NC(=O)[C@@H]1CCCN1)C(=O)O (H-Pro-Lys-OH)			> 16000
O=C(O)[C@@H]1CCCN1C(=O)[C@@H]1CCCN1 (H-Pro-Pro-OH)		700	800
O=C(O)[C@H](CO)NC(=O)[C@@H]1CCCN1 (H-Pro-Ser-OH)		1600	> 16000
N[C@@H](CO)C(=O)N[C@@H](CO)C(=O)O (H-Ser-Ser-OH)		140	130
C[C@H](NC(=O)[C@@H](N)Cc1c[nH]c2ccccc12)C(=O)O (H-Trp-Ala-OH)		100	260
N[C@@H](Cc1c[nH]c2ccccc12)C(=O)NCC(=O)O (H-Trp-Gly-OH)		260	730
N[C@@H](Cc1c[nH]c2ccccc12)C(=O)N[C@@H](Cc1c[nH]c2ccccc12)C(=O)O (H-Trp-Trp-OH)			250
N[C@@H](Cc1c[nH]c2ccccc12)C(=O)N[C@@H](Cc1ccc(O)cc1)C(=O)O (H-Trp-Tyr-OH)			80
CC(C)[C@H](NC(=O)[C@@H](N)Cc1c[nH]c2ccccc12)C(=O)O (H-Trp-Val-OH)		50	90
N[C@@H](Cc1ccc(O)cc1)C(=O)N[C@@H](Cc1c[nH]c2ccccc12)C(=O)O (H-Tyr-Trp-OH)			100
NC(=O)[C@H](Cc1ccc(O)cc1)NC(=O)[C@@H](N)Cc1ccc(O)cc1 (H-Tyr-Tyr-NH2)			9110
N[C@@H](Cc1ccc(O)cc1)C(=O)N[C@@H](Cc1ccc(O)cc1)C(=O)O (H-Tyr-Tyr-OH)		60	60
NC(=O)[C@@H]1Cc2ccccc2CN1C(=O)[C@@H](N)Cc1ccc(O)cc1 (H-Tyr-[Tic]-NH2)	Not Active		
CC(C)[C@H](N)C(=O)N[C@H](C(=O)N[C@H](C(=O)O)C(C)C)C(C)C (H-Val-Val-Val-OH)		210	230
NCC(=O)N1CCC[C@H]1C(=O)O [GLYCYL PROLINE] (H-Gly-Pro-OH)		130	330
CN(CC(=O)O)C(=O)CN [GLYCYLSARCOSINE] (H-Gly-[Sar]-OH)		540	1160
CC(C)C[C@H](NC(=O)[C@@H](N)CC(C)C)C(=O)O [LEU-LEU]		80	170
CC(C)[C@H](N)C(=O)N[C@H](C(=O)O)C(C)C [VAL-VAL] (H-Val-Val-OH)		70	210
